Test system: T1, Horseradish peroxidase (HRP)
T1 construct: gene PRXC1A; free enzyme
Assay: colorimetric peroxidase assay, Lineweaver-Burk plot
Format: biochemical
Settings: free enzyme, not immobilised; co-substrate H2O2 (concentration not stated); pH and temperature not stated; read-out: Kmapp

CCN(CC)c1ccc(N)cc1 [DPD, N,N-diethyl-p-phenylenediaminesulfate]
Km: 500 µM

— publication PMC6271698, “Immobilization of Horseradish Peroxidase on NH2-Modified Magnetic Fe3O4/SiO2 Particles and Its Application in Removal of 2,4-Dichlorophenol” (Molecules, 2014)
